Like-named read-outs stand apart in the source and are kept apart here.
Columns and labels:
[1] = test system: Group I metabotropic glutamate receptors (mGluRs); experiment: Phosphatidylinositol assay (ex vivo, inositol phosphate accumulation in neonatal rat tissue slices); type: cell-based, Sprague Dawley rat; details: antagonist, versus ACPD, 45 minutes
Protocol: Briefly, cross-chopped slices are prepared from neonatal Sprague Dawley rat tissue (age: p7-p14). The slices are pre-labelled with [^3H] myo-inositol. Following pre-labelling, the slices are incubated with the test drugs and standard (known Group I agonists i.e. ACPD) for a period of 45 minutes. The incubation is terminated by the addition of chloroform/methanol/HCl (100:200:2). The resulting mixture is separated into two phases by the addition of chloroform and distilled water. The aqueous fraction is applied to ion exchange columns, and inositol phosphates are eluted using 800 mM Ammonium Formate/100 mM Formic Acid. The eluent is then analyzed using liquid scintillation counting. The amount of inositol phosphate accumulation is expressed as a percentage of that induced by ACPD.
Group I metabotropic glutamate receptors (mGluRs) are positively coupled on inositol phosphate metabolism. Agonists at these receptors lead to an increase in intracellular free inositol phosphates, while antagonists inhibit the increase in intracellular free inositol phosphate induced by standard agonists (i.e. ACPD).
Cross-chopped slices were prepared from neonatal Sprague Dawley rat tissue (age: p7-p14). […] The eluent was then analyzed using liquid scintillation counting. The amount of inositol phosphate accumulation was expressed as a percentage of that induced by ACPD. […]

[2] = test system: Group II/III metabotropic glutamate receptors (mGluRs); experiment: Cyclic AMP assay (ex vivo, forskolin-induced cAMP accumulation in rat cortical slices); type: cell-based, Sprague Dawley rat
Protocol: The assay of cyclic AMP formation can be performed as described previously (Tovey et al., Clinica Chimica Acta, 56, 221-234, 1974). The assay can be modelled on the cyclic AMP assay kit available from Amersham, which in turn, is based on the assay created by Tovey et al. Briefly, samples are prepared from Sprague Dawley rat (225-250 g) cortical slices. Slices are incubated with the drug, and then challenged with forskolin to induce cyclic AMP release. Following termination of the reaction by boiling, the slices are homogenized and centrifuged. Samples of supernatant are then incubated for 2-3 hours with a known quantity of [^3H]cAMP and a binding protein. […] The resulting supernatant (containing free cyclic AMP) is then analyzed by liquid scintillation counting. The amount of unbound cyclic AMP can be calculated from a standard curve previously determined with various samples of free cyclic AMP. […]
The assay has been modeled on the cyclic AMP assay kit available from Amersham. […] Samples of supernatant were then incubated for 2-3 hours with a known quantity of [^3H]cAMP and a binding protein. […] The resulting supernatant (containing free cyclic AMP) was then analyzed by liquid scintillation counting. The amount of unbound cyclic AMP was calculated from a standard curve previously determined with various samples of free cyclic AMP. […]

`N[C@@]1(C(=O)O)Cc2ccccc2[C@H]1CC(=O)O` (relative stereo) [Cis-2 amino-2-carboxyindaneacetic acid (compound 8)] gave an EC50 [1] of 2.2 µM and an EC50 ([2]; antagonist, versus glutamate, read-out: Group II/III Antagonist EC50) of 0.0012 µM.
With `N[C@]1(C(=O)O)Cc2ccccc2[C@H]1CC(=O)O` (relative stereo) [Trans-2 amino-2-carboxyindaneacetic acid (compound 8)] the EC50 [1] was 1600 µM and the EC50 ([2]; agonist, read-out: Group II/III Agonist EC50) was 0.11 µM.

— patent US7034055B1, “2-aminoindane analogs” (Prescient Neuropharma Inc., priority 1999, dated 2006)
